This is an account of results in patent US9889099B2, “Method and composition for enhancing milk production” (LAND O'LAKES, INC., priority 1999, dated 2018).

One data set has as its system lactating cows. The experiment in a line: Example 1: feeding lactating cows control ration plus about 100 g sorbitol per day, 28 day test period. In kind it is in vivo, Holstein cows. The source says: In this example, twenty Holstein cows averaging about thirty days in milk each, and thus in early lactation, were arranged in a randomized complete block design. Ten of the twenty cows were orally fed a control ration, and the other ten cows were orally fed a test ration that consisted of the control ration plus about 100 grams of sorbitol per day per cow. The cows were blocked by parity milk production, based upon the level of milk production by individual cows, after being in milk for fifteen to twenty days. After being blocked by parity milk production, the cows were randomly allotted to the control ration feeding or to the test ration feeding. The components of the control ration used in this example are shown in Table 1: The control ration was placed in the feeding troughs of the cattle once daily in the morning. When the test ration was to be provided to the test cattle, sorbitol was top dressed and lightly mixed into the control ration in the feeding trough of each cow being supplied with the test ration dosage of about 100 grams of sorbitol per cow per day, about one hour after the control ration was placed in the feeding trough. Then, the control ration and the test ration were lightly mixed in front of the cows six times per day to encourage additional feed ingestion by the cattle. Leftover rations from the previous day's feeding were collected and weighed from each feeding trough prior to feeding the test cattle the next day. The cows received a sufficient amount of the control ration to ensure that at least about ten weight percent, based upon the amount of control ration provided at the beginning of each day, remained per day for each test cow. The amount of sorbitol that was top dressed in the control ration to form the test ration was adjusted upward to account for the excess of control ration provided to ensure that the cows ingested the test ration dosage of about 100 grams of sorbitol per cow per day. Feed refusals were measured daily, and water was supplied ad libitum. […] Each cow was milked three times daily and the weight of produced milk was recorded at each milking. The milk was sampled once per day (⅓ of the sample volume from each milking) and was analyzed for protein, fat, lactose, and total solids, in accordance with the property determination and characterization techniques presented above. The milk production and milk component data was analyzed using the general linear model (GLM) statistical procedure of SAS® statistical analysis software for a randomized, complete block design that included both the particular feed regimen and the week of the test period in the model statement. […] Additionally, all data was analyzed to determine the mean of the data for each variable under consideration over the entire experimental period. […]

Data set [1] can be described thus: Passage of orally fed sorbitol through the rumen into the abomasum. In kind it is in vivo, ruminant. Particulars: within about six to about eight hours after entering the rumen; based on total amount orally fed.

For the molecule `OC[C@@H](O)[C@@H](O)[C@H](O)[C@@H](O)CO` [sorbitol], in the data set on lactating cows (about 100 g sorbitol/day/cow mixed with control ration, mean over 28 days, control 47.2, P 0.54), the “Dry Matter Intake” value is recorded as 45.6 pounds/day/cow. Also, the “Milk Production” value with lactating cows (about 100 g sorbitol/day/cow mixed with control ration, mean over 28 days, control 88.9, P 0.02) came to 93.5 pounds/day/cow. Moreover, the “difference in dry matter intake between control ration and test ration (FIG. 1)” value in the data set with lactating cows (about 100 g sorbitol/day/cow, P 0.54) is on record as “statistically insignificant”. In the data set on lactating cows (about 100 g sorbitol/day/cow, weekly means over four weeks), the “daily milk production at each weekly data point versus control cows (FIG. 2)” value is given as “significant increase”. In data set [1], the “share of orally fed sugar alcohol passing through the rumen into the abomasum” value was “at least 50 weight percent”.
